{
  "source": "paper PMC12920416",
  "about": "“Preclinical development of [^18F]TAAR1-2203 as a PET radioligand for imaging TAAR1 expression and receptor occupancy” (European Journal of Nuclear Medicine and Molecular Imaging, 2025)",
  "key": {"[1]": {"assay": "Plasma stability of non-radioactive reference, non-human primate plasma", "type": "in vitro ADME", "conditions": "37 °C, up to 5 h"}, "PAMPA permeability": {"assay": "PAMPA permeability", "type": "in vitro ADME", "from_the_text": "(§1) Supplement 259_2025_7564_MOESM1_ESM.docx, table 1: Supplemental Table 1. Physicochemical properties of TAAR1-2203. | column: 194.2"}, "[2]": {"assay": "4-week repeat dose toxicity study, rats", "type": "in vivo", "conditions": "4-week repeat dose toxicity study"}, "[3]": {"assay": "Clearance in rat liver microsomes", "type": "in vitro ADME", "from_the_text": "(§2) Supplement 259_2025_7564_MOESM1_ESM.docx, table 2: Supplemental Table 2. ADME profile of TAAR1 ligand TAAR1-2203. | column: 14 / 10"}, "[4]": {"assay": "Chemical stability in aqueous buffer", "type": "physicochemical", "conditions": "pH 1, 4, 6.5 and 8 for 2 h at 37 °C", "from_the_text": "as §1"}, "[5]": {"assay": "Plasma protein binding of TAAR1-2203, human plasma", "type": "in vitro ADME"}, "[6]": {"assay": "Plasma stability of non-radioactive reference, human plasma", "type": "in vitro ADME", "conditions": "37 °C, up to 5 h"}, "TAAR1 [7]": {"target": "TAAR1", "assay": "Competition binding assay, cynomolgus monkey TAAR1"}, "[8]": {"assay": "Clearance in rat hepatocytes", "type": "in vitro ADME", "from_the_text": "as §2"}, "[9]": {"assay": "Clearance in human hepatocytes", "type": "in vitro ADME", "from_the_text": "as §2"}, "mouse TAAR1": {"target": "mouse TAAR1 (Mus musculus, UniProt Q923Y8)", "sequence (Q923Y8 whole entry)": "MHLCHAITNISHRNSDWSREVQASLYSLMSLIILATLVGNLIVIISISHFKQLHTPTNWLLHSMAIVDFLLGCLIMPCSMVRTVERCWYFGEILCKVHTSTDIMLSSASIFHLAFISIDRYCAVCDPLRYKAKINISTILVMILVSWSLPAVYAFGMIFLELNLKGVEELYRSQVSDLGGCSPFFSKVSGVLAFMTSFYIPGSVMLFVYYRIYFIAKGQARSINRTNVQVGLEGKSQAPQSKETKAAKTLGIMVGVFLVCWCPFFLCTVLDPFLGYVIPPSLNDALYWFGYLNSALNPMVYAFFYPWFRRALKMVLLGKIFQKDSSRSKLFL", "assay": "Competition binding assay, mouse TAAR1"}, "human P-glycoprotein": {"target": "human P-glycoprotein (Homo sapiens, UniProt P08183)", "sequence (P08183 whole entry)": "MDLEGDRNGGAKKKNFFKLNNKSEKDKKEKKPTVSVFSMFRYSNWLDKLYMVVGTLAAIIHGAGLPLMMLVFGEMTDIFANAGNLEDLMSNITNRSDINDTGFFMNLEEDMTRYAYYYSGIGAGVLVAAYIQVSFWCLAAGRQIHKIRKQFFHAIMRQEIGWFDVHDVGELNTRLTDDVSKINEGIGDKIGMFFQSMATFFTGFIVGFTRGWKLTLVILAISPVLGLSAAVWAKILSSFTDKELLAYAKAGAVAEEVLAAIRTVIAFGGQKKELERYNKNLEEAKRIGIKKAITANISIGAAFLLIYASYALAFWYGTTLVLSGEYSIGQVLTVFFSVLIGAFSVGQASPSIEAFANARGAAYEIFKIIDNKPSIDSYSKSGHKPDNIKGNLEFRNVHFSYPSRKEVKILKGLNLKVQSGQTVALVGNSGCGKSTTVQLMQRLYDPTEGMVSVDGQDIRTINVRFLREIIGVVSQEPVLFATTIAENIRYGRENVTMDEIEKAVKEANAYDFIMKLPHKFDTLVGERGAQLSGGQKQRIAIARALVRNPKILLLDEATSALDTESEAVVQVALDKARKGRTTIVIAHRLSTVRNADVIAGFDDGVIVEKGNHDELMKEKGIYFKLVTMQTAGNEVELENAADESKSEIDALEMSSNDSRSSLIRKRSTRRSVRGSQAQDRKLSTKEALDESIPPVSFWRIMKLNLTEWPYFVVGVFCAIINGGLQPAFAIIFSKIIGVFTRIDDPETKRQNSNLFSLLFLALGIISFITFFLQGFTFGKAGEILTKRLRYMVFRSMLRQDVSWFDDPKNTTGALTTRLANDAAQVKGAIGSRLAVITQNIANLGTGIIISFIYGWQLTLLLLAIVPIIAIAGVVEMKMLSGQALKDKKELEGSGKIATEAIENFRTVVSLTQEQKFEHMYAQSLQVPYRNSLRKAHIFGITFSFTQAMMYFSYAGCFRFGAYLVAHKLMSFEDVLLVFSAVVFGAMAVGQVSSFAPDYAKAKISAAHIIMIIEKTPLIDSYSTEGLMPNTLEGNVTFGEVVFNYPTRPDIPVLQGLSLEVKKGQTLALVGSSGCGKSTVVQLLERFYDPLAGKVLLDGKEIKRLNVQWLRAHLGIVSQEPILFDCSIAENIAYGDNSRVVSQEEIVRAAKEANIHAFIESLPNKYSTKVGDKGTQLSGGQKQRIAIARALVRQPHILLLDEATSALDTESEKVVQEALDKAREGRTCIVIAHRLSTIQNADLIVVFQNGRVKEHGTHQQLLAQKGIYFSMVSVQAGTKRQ", "assay": "P-glycoprotein efflux assay, human P-gp", "type": "in vitro ADME"}, "[10]": {"assay": "Plasma stability of non-radioactive reference, mouse plasma", "type": "in vitro ADME", "conditions": "37 °C, up to 5 h"}, "[11]": {"assay": "Plasma protein binding of TAAR1-2203, rat plasma", "type": "in vitro ADME"}, "Aqueous solubility": {"assay": "Aqueous solubility", "type": "physicochemical", "conditions": "pH 6.5 in 0.05 M phosphate buffer", "from_the_text": "(§3) ^a Aqueous solubility at pH 6.5 in 0.05 M phosphate buffer; ^b pH 7.4"}, "[12]": {"assay": "Clearance in human liver microsomes", "type": "in vitro ADME", "from_the_text": "as §2"}, "[13]": {"assay": "4-week repeat dose toxicity study, dogs", "type": "in vivo", "conditions": "4-week repeat dose toxicity study"}, "mouse P-glycoprotein": {"target": "mouse P-glycoprotein (Mus musculus, UniProt P21447)", "sequence (P21447 whole entry)": "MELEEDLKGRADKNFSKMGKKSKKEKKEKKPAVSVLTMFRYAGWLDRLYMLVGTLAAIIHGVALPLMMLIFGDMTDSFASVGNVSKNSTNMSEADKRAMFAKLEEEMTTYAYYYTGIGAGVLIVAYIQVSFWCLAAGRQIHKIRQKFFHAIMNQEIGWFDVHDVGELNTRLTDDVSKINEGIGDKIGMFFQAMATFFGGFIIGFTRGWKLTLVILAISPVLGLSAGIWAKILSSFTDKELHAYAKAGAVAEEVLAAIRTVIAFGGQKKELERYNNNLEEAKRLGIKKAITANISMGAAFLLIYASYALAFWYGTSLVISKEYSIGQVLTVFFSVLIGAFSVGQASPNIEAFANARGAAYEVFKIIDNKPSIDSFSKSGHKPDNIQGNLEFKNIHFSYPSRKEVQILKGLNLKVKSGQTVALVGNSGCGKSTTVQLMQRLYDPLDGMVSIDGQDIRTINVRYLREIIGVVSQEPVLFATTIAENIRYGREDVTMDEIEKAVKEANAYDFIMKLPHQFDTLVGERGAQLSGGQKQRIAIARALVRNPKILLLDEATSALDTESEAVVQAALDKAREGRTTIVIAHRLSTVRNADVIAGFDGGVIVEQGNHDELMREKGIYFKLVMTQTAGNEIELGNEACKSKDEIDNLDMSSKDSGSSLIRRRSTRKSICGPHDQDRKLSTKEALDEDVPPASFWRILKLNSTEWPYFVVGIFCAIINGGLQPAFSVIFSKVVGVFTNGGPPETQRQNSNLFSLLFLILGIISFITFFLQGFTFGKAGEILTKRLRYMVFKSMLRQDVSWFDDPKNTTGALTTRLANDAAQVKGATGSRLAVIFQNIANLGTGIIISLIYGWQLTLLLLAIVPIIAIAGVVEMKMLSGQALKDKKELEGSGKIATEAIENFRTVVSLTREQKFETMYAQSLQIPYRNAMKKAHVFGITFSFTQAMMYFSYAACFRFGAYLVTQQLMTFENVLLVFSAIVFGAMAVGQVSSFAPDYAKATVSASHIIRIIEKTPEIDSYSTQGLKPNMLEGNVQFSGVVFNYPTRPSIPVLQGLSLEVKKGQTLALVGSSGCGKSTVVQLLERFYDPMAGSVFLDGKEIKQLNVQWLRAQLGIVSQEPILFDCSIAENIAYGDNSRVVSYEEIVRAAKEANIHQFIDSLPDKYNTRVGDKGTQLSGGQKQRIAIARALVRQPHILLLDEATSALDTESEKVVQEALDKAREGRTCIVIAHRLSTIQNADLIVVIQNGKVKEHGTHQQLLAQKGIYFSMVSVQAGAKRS", "assay": "P-glycoprotein efflux assay, mouse P-gp", "type": "in vitro ADME"}, "[14]": {"assay": "Plasma stability of non-radioactive reference, rat plasma", "type": "in vitro ADME", "conditions": "37 °C, up to 5 h"}, "rat TAAR1": {"target": "rat TAAR1 (Rattus norvegicus, UniProt Q923Y9)", "sequence (Q923Y9 whole entry)": "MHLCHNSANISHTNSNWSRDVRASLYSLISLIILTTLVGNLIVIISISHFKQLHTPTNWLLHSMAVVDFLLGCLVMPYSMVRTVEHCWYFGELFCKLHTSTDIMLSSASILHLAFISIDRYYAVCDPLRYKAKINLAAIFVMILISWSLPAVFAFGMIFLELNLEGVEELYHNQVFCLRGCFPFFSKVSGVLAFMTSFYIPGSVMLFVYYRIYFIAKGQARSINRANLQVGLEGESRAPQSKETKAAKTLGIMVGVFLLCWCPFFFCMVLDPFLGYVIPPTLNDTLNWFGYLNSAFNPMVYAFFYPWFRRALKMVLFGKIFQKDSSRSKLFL", "assay": "Competition binding assay, rat TAAR1"}, "[15]": {"assay": "logD (physicochemical profiling)", "conditions": "pH 7.4", "from_the_text": "as §3"}, "TAAR1 [16]": {"target": "T1, TAAR1 (Homo sapiens, UniProt Q96RJ0)", "T1 sequence (Q96RJ0 1-339)": "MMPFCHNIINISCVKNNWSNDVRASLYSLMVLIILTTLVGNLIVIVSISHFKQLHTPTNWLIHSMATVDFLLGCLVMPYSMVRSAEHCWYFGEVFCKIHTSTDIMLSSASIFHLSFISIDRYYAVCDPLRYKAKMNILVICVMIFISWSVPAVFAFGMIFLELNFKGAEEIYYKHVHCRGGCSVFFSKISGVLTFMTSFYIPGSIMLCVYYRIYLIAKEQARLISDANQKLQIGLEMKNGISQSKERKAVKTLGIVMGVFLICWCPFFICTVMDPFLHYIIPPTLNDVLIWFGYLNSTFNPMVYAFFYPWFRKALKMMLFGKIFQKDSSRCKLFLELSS", "assay": "Competition binding assay, human TAAR1"}},
  "data": [
    {"smiles": "Cc1c(F)cccc1[C@H]1COC(N)=N1", "note": "[TAAR1-2203]", "values": [
      {"measurement": "Stability in non-human primate plasma", "setting": "[1]", "value": "No degradation was observed"},
      {"measurement": "PAMPA Peff", "setting": "PAMPA permeability", "value": 14.5, "unit": "cm/s*10E^-6"},
      {"measurement": "Doses well tolerated without adverse events, rats", "setting": "[2]", "value": "≤ 10", "unit": "mg/kg"},
      {"measurement": "rat clearance in microsomes", "setting": "[3]", "value": 10, "unit": "µL/min/mg protein"},
      {"measurement": "Chemical stability in aqueous buffer", "setting": "[4]", "value": "Stable at pH 1, 4, 6.5 and 8 for 2 h at 37 °C"},
      {"measurement": "human plasma free fraction", "setting": "[5]; human", "value": 62, "unit": "%"},
      {"measurement": "Free fraction in human plasma", "setting": "[5]; non-radioactive TAAR1-2203", "value": "approximately 60%"},
      {"measurement": "Stability in human plasma", "setting": "[6]", "value": "No degradation was observed"},
      {"measurement": "Ki", "setting": "TAAR1 [7]", "value": 22.5, "unit": "nM"},
      {"measurement": "rat clearance in hepatocytes", "setting": "[8]", "value": 1.7, "unit": "µL/min/10E6 cells"},
      {"measurement": "human clearance in hepatocytes", "setting": "[9]", "value": 10, "unit": "µL/min/10E6 cells"},
      {"measurement": "Ki", "setting": "mouse TAAR1", "value": 0.9, "unit": "nM"},
      {"measurement": "Papp, AB inhibitor, human P-glycoprotein assay", "setting": "human P-glycoprotein", "value": 41.2, "unit": "×10⁻⁶ cm/s"},
      {"measurement": "human P-glycoprotein efflux ratio", "setting": "human P-glycoprotein", "value": 1.2},
      {"measurement": "Stability in mouse plasma", "setting": "[10]", "value": "No degradation was observed"},
      {"measurement": "Free fraction in rodent plasma", "setting": "[11]; non-radioactive TAAR1-2203", "value": "approximately 60%"},
      {"measurement": "Free fraction in rat plasma", "setting": "[11]; rat", "value": 61, "unit": "%"},
      {"measurement": "Solubility", "setting": "Aqueous solubility", "value": 210, "unit": "µg/mL"},
      {"measurement": "human clearance in microsomes", "setting": "[12]", "value": 14, "unit": "µL/min/mg protein"},
      {"measurement": "Doses well tolerated without adverse events, dogs", "setting": "[13]", "value": "up to 3 mg/kg"},
      {"measurement": "Papp, AB inhibitor, mouse P-glycoprotein assay", "setting": "mouse P-glycoprotein", "value": 31.6, "unit": "×10⁻⁶ cm/s"},
      {"measurement": "mouse P-glycoprotein efflux ratio", "setting": "mouse P-glycoprotein", "value": 1.0},
      {"measurement": "Stability in rat plasma", "setting": "[14]", "value": "No degradation was observed"},
      {"measurement": "Ki", "setting": "rat TAAR1", "value": 7.4, "unit": "nM"},
      {"measurement": "logD", "setting": "[15]", "value": 1.12},
      {"measurement": "Ki", "setting": "TAAR1 [16]", "value": 5.7, "unit": "nM"}
    ]}
  ]
}
